Assay results from publication PMC6178217 (JACC. Cardiovascular imaging, 2018).
Like-named read-outs stand apart in the source and are kept apart here.

Experiments:
[1] = biological target: myocardial CB1-R (Mus musculus, UniProt P47746); test: [^11C]-OMAR dynamic micro-PET/CT, myocardial OMAR retention in mice; format: in vivo; conditions: for myocardial OMAR retention: median [range]
[2] = system: CB1-R; conditions: cited from earlier work
[3] = as reported in brain studies; cited from earlier work
[4] = median (range)
[5] = obese mice, intravenous, median (range)
[6] = biological target: myocardial CB1-R (Homo sapiens, UniProt P21554); test: [^11C]-OMAR PET/CT, myocardial retention index of OMAR in humans; format: in vivo; conditions: median (range)
[7] = biological target: CB1-R (Mus musculus, UniProt P47746); test: Rimonabant blocking study of [^11C]-OMAR uptake in obese mice; format: in vivo
Sequence of CB1-R (Mus musculus, UniProt P47746) (P47746 whole entry): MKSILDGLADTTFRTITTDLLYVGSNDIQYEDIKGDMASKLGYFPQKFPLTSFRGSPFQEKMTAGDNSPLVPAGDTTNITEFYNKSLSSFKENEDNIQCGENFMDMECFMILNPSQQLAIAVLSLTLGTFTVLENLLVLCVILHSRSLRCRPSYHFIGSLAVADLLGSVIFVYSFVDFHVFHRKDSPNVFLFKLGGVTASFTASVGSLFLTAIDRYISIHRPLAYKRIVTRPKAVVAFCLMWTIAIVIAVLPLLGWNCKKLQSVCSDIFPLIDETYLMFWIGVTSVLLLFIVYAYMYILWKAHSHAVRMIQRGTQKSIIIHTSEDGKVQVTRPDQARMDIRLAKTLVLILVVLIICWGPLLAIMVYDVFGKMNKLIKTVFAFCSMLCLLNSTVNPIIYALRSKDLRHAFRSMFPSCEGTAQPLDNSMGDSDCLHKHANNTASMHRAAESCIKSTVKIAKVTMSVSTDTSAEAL

Sequence of myocardial CB1-R (Mus musculus, UniProt P47746) (P47746 whole entry): as above
Sequence of myocardial CB1-R (Homo sapiens, UniProt P21554) (P21554 whole entry): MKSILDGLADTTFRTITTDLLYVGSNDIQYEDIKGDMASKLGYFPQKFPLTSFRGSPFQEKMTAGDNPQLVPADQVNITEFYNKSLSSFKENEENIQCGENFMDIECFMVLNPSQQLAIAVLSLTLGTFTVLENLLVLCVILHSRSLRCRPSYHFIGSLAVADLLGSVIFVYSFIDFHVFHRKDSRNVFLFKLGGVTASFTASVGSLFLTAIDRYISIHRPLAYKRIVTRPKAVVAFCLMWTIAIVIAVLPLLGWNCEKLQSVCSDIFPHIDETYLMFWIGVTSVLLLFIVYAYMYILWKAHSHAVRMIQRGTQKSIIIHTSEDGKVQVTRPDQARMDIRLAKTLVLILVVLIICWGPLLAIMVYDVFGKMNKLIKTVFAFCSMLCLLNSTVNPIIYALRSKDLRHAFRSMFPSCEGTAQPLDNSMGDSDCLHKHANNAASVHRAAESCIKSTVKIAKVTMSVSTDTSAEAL

## [11CH3]Oc1ccc(-c2c(C#N)c(C(=O)NN3CCCCC3)nn2-c2ccc(Cl)cc2Cl)cc1 [[^11C]-OMAR]
[1]; heart, ob/ob vs lean control mice, micro-PET/CT
  fold higher [^11C]-OMAR retention in obese versus lean mice: 8 fold
[1]; normal-weight mice
  myocardial OMAR retention: 0.13 %/min
[1]; obese mice
  binding potential of [^11C]-OMAR to myocardial CB1-R: 6.4
  myocardial OMAR retention: 8.29 %/min
[2]; brain
  blocking of [^11C]-OMAR uptake reported for brain studies: about 75%
[2]; previous blocking studies in the brain
  binding potential in the brain: about 2
[3]
  radioactivity related to unchanged [^11C]-OMAR: at least 94%
[4]; AOB
  DBP after [^11C]-OMAR injection: 71 (56–78) mm Hg
  HR after [^11C]-OMAR injection: 72 (65–84) beats/min
  MAP after [^11C]-OMAR injection: 93 (76–96) mm Hg
  RPP after [^11C]-OMAR injection: 9,588 (7,325–10,960) mm Hg/min
  SBP after [^11C]-OMAR injection: 133 (116–140) mm Hg
[4]; CON
  DBP after [^11C]-OMAR injection: 62 (60–68) mm Hg
  HR after [^11C]-OMAR injection: 70 (61–77) beats/min
  MAP after [^11C]-OMAR injection: 81 (75–97) mm Hg
  SBP after [^11C]-OMAR injection: 120 (118–124) mm Hg
[5]; 5 min
  [^11C]-OMAR uptake, Blood: 1.19 (1.10–1.33) %ID/g Tissue
  [^11C]-OMAR uptake, Cerebellum: 2.43 (1.72–2.74) %ID/g Tissue
  [^11C]-OMAR uptake, Heart: 4.63 (4.00–5.23) %ID/g Tissue
[5]; 10 min
  [^11C]-OMAR uptake, Blood: 0.99 (0.91–1.19) %ID/g Tissue
  [^11C]-OMAR uptake, Cerebellum: 2.32 (2.11–2.50) %ID/g Tissue
  [^11C]-OMAR uptake, Thalamus: 1.62 (1.59–1.72) %ID/g Tissue
[5]; 15 min
  [^11C]-OMAR uptake, Blood: 0.99 (0.91–1.19) %ID/g Tissue
  [^11C]-OMAR uptake, Cerebellum: 2.53 (2.43–2.55) %ID/g Tissue
  [^11C]-OMAR uptake, Thalamus: 1.69 (1.59–1.72) %ID/g Tissue
[5]; 30 min
  [^11C]-OMAR uptake, Blood: 0.55 (0.39–0.65) %ID/g Tissue
  [^11C]-OMAR uptake, Cerebellum: 2.11 (1.25–2.38) %ID/g Tissue
  [^11C]-OMAR uptake, Heart: 2.14 (2.09–2.17) %ID/g Tissue
  [^11C]-OMAR uptake, Thalamus: 1.21 (1.18–1.21) %ID/g Tissue
[5]; 60 min
  [^11C]-OMAR uptake, Blood: 0.46 (0.46–0.47) %ID/g Tissue
  [^11C]-OMAR uptake, Cerebellum: 1.37 (1.25–1.51) %ID/g Tissue
  [^11C]-OMAR uptake, Heart: 1.55 (1.48–1.61) %ID/g Tissue
  [^11C]-OMAR uptake, Thalamus: 0.73 (0.58–0.77) %ID/g Tissue
[5]; 90 min
  [^11C]-OMAR uptake, Blood: 0.55 (0.51–0.68) %ID/g Tissue
  [^11C]-OMAR uptake, Cerebellum: 1.11 (1.05–2.00) %ID/g Tissue
  [^11C]-OMAR uptake, Heart: 1.40 (1.40–1.79) %ID/g Tissue
  [^11C]-OMAR uptake, Thalamus: 0.55 (0.38–0.98) %ID/g Tissue
[6]; AOB (advanced obesity)
  OMAR retention (absolute left ventricular): 5.68 (1.88–6.89) %/min
[6]; CON (normal-weight control subjects)
  OMAR retention (absolute left ventricular): 0.47 (0.13–1.31) %/min
[7]; 5 mg/kg dose of rimonabant, heart
  [^11C]-OMAR uptake that could not be blocked: about 42%
[7]; myocardial blocking study
  baseline-to-block ratio of myocardial [^11C]-OMAR uptake: about 2.4
  binding potential: > 1
